# According to patent US11571411B2, “Use of a bisamide derivative of malonic acid for treating allergic and other diseases in humans and animals” (PHARMENTERPRISES ALLERGY LLC, priority 2018, dated 2023):
# Test system: histamine-induced nasal congestion model
# Assay: Histamine-induced nasal congestion model in dogs, oral administration
# Format: in vivo, Beagle dogs
# Protocol: A histamine-induced nasal congestion model in dogs was performed according to the standard procedure [Tiniakov R. L., Tiniakova O. P., McLeod R. L., Hey J. A., Yeates D. B. Canine model of nasal congestion and allergic rhinitis//J Appl Physiol. 2003. V.94(5). P.1821-1828]. Beagle dogs were injected in the nasal cavity with a 5% histamine solution in a volume of 250 μl/nostril. The volume of the nasal cavity of the right and left nostrils was measured using a rhinometer before and 5, 10, 15, 20, 30, 40, 50 and 60 minutes after administration of histamine. Three experiments were performed, in which Compound I was administered orally once at different times: 1) 30 minutes before administration of histamine; 2) 1 hour before administration of histamine; and 3) 6 hours before administration of histamine, and one experiment was performed, in which Compound I was administered orally once daily for 14 days, the last administration was carried out 1 hour before administration of histamine.
# [1] = oral 1 hour before histamine, 0.005 mg/kg, 5 minutes after histamine
# [2] = oral 1 hour before histamine, 0.005 mg/kg, 10 minutes after histamine
# [3] = oral 1 hour before histamine, 0.005 mg/kg, 15 minutes after histamine
# [4] = oral 1 hour before histamine, 0.005 mg/kg, 20 minutes after histamine
# [5] = oral 1 hour before histamine, 0.005 mg/kg, 30 minutes after histamine
# [6] = oral 1 hour before histamine, 0.005 mg/kg, 40 minutes after histamine
# [7] = oral 1 hour before histamine, 0.005 mg/kg, 50 minutes after histamine
# [8] = oral 1 hour before histamine, 0.005 mg/kg, 60 minutes after histamine
# [9] = oral 1 hour before histamine, 0.005 mg/kg, before histamine administration
# [10] = oral 1 hour before histamine, 0.05 mg/kg, 5 minutes after histamine
# [11] = oral 1 hour before histamine, 0.05 mg/kg, 10 minutes after histamine
# [12] = oral 1 hour before histamine, 0.05 mg/kg, 15 minutes after histamine
# [13] = oral 1 hour before histamine, 0.05 mg/kg, 20 minutes after histamine
# [14] = oral 1 hour before histamine, 0.05 mg/kg, 30 minutes after histamine
# [15] = oral 1 hour before histamine, 0.05 mg/kg, 40 minutes after histamine
# [16] = oral 1 hour before histamine, 0.05 mg/kg, 50 minutes after histamine
# [17] = oral 1 hour before histamine, 0.05 mg/kg, 60 minutes after histamine
# [18] = oral 1 hour before histamine, 0.05 mg/kg, before histamine administration
# [19] = oral 1 hour before histamine, 0.54 mg/kg, 5 minutes after histamine
# [20] = oral 1 hour before histamine, 0.54 mg/kg, 10 minutes after histamine
# [21] = oral 1 hour before histamine, 0.54 mg/kg, 15 minutes after histamine
# [22] = oral 1 hour before histamine, 0.54 mg/kg, 20 minutes after histamine
# [23] = oral 1 hour before histamine, 0.54 mg/kg, 30 minutes after histamine
# [24] = oral 1 hour before histamine, 0.54 mg/kg, 40 minutes after histamine
# [25] = oral 1 hour before histamine, 0.54 mg/kg, 50 minutes after histamine
# [26] = oral 1 hour before histamine, 0.54 mg/kg, 60 minutes after histamine
# [27] = oral 1 hour before histamine, 0.54 mg/kg, before histamine administration
# [28] = oral 6 hours before histamine, 0.005 mg/kg, 5 minutes after histamine
# [29] = oral 6 hours before histamine, 0.005 mg/kg, 10 minutes after histamine
# [30] = oral 6 hours before histamine, 0.005 mg/kg, 15 minutes after histamine
# [31] = oral 6 hours before histamine, 0.005 mg/kg, 20 minutes after histamine
# [32] = oral 6 hours before histamine, 0.005 mg/kg, 30 minutes after histamine
# [33] = oral 6 hours before histamine, 0.005 mg/kg, 40 minutes after histamine
# [34] = oral 6 hours before histamine, 0.005 mg/kg, 50 minutes after histamine
# [35] = oral 6 hours before histamine, 0.005 mg/kg, 60 minutes after histamine
# [36] = oral 6 hours before histamine, 0.005 mg/kg, before histamine administration
# [37] = oral 6 hours before histamine, 0.05 mg/kg, 5 minutes after histamine
# [38] = oral 6 hours before histamine, 0.05 mg/kg, 10 minutes after histamine
# [39] = oral 6 hours before histamine, 0.05 mg/kg, 15 minutes after histamine
# [40] = oral 6 hours before histamine, 0.05 mg/kg, 20 minutes after histamine
# [41] = oral 6 hours before histamine, 0.05 mg/kg, 30 minutes after histamine
# [42] = oral 6 hours before histamine, 0.05 mg/kg, 40 minutes after histamine
# [43] = oral 6 hours before histamine, 0.05 mg/kg, 50 minutes after histamine
# [44] = oral 6 hours before histamine, 0.05 mg/kg, 60 minutes after histamine
# [45] = oral 6 hours before histamine, 0.05 mg/kg, before histamine administration
# [46] = oral 6 hours before histamine, 0.54 mg/kg, 5 minutes after histamine
# [47] = oral 6 hours before histamine, 0.54 mg/kg, 10 minutes after histamine
# [48] = oral 6 hours before histamine, 0.54 mg/kg, 15 minutes after histamine
# [49] = oral 6 hours before histamine, 0.54 mg/kg, 20 minutes after histamine
# [50] = oral 6 hours before histamine, 0.54 mg/kg, 30 minutes after histamine
compound,measurement,setting,value
"O=C(CC(=O)NCCc1cnc[nH]1)NCCc1cnc[nH]1 [Compound I, N,N′-bis(2-(1H-imidazol-5-yl)ethyl)malonamide]",onset of the therapeutic effect,"after a single oral administration, dogs",≤ 30 min
same,"Volume of the nasal cavity, left nostril",[1],3.1 ± 0.2$ cm^3
same,"Volume of the nasal cavity, right nostril",[1],3.1 ± 0.5$ cm^3
same,"Volume of the nasal cavity, left nostril",[2],2.4 ± 0.4$ cm^3
same,"Volume of the nasal cavity, right nostril",[2],2.1 ± 0.1$ cm^3
same,"Volume of the nasal cavity, left nostril",[3],2.2 ± 0.2$ cm^3
same,"Volume of the nasal cavity, right nostril",[3],2.8 ± 0.5$ cm^3
same,"Volume of the nasal cavity, left nostril",[4],2.3 ± 0.14$ cm^3
same,"Volume of the nasal cavity, right nostril",[4],2.6 ± 0.4$ cm^3
same,"Volume of the nasal cavity, left nostril",[5],2.0 ± 0.2$ cm^3
same,"Volume of the nasal cavity, right nostril",[5],3.0 ± 0.5$ cm^3
same,"Volume of the nasal cavity, left nostril",[6],3.6 ± 0.2 cm^3
same,"Volume of the nasal cavity, right nostril",[6],3.4 ± 0.2$ cm^3
same,"Volume of the nasal cavity, left nostril",[7],3.3 ± 0.2$ cm^3
same,"Volume of the nasal cavity, right nostril",[7],3.7 ± 0.24$ cm^3
same,"Volume of the nasal cavity, left nostril",[8],3.4 ± 0.1$ cm^3
same,"Volume of the nasal cavity, right nostril",[8],3.5 ± 0.2$ cm^3
same,"Volume of the nasal cavity, left nostril",[9],3.9 ± 0.2 cm^3
same,"Volume of the nasal cavity, right nostril",[9],4.3 ± 0.2 cm^3
same,"Volume of the nasal cavity, left nostril",[10],2.8 ± 0.1$ cm^3
same,"Volume of the nasal cavity, right nostril",[10],2.8 ± 0.3$ cm^3
same,"Volume of the nasal cavity, left nostril",[11],3.1 ± 0.24$ cm^3
same,"Volume of the nasal cavity, right nostril",[11],3.5 ± 0.24$ cm^3
same,"Volume of the nasal cavity, left nostril",[12],3.1 ± 0.14$ cm^3
same,"Volume of the nasal cavity, right nostril",[12],2.6 ± 0.2$ cm^3
same,"Volume of the nasal cavity, left nostril",[13],2.5 ± 0.14$ cm^3
same,"Volume of the nasal cavity, right nostril",[13],2.5 ± 0.14$ cm^3
same,"Volume of the nasal cavity, left nostril",[14],3.6 ± 0.24 cm^3
same,"Volume of the nasal cavity, right nostril",[14],3.5 ± 0.24 cm^3
same,"Volume of the nasal cavity, left nostril",[15],3.7 ± 0.34 cm^3
same,"Volume of the nasal cavity, right nostril",[15],3.7 ± 0.24 cm^3
same,"Volume of the nasal cavity, left nostril",[16],3.2 ± 0.1$ cm^3
same,"Volume of the nasal cavity, right nostril",[16],3.2 ± 0.1$ cm^3
same,"Volume of the nasal cavity, left nostril",[17],3.2 ± 0.1$ cm^3
same,"Volume of the nasal cavity, right nostril",[17],3.5 ± 0.1$ cm^3
same,"Volume of the nasal cavity, left nostril",[18],4.0 ± 0.3 cm^3
same,"Volume of the nasal cavity, right nostril",[18],4.2 ± 0.2 cm^3
same,"Volume of the nasal cavity, left nostril",[19],2.6 ± 0.1$ cm^3
same,"Volume of the nasal cavity, right nostril",[19],3.0 ± 0.4$ cm^3
same,"Volume of the nasal cavity, left nostril",[20],3.4 ± 0.14$ cm^3
same,"Volume of the nasal cavity, right nostril",[20],3.0 ± 0.24$ cm^3
same,"Volume of the nasal cavity, left nostril",[21],2.5 ± 0.2$ cm^3
same,"Volume of the nasal cavity, right nostril",[21],3.0 ± 0.24$ cm^3
same,"Volume of the nasal cavity, left nostril",[22],2.5 ± 0.24$ cm^3
same,"Volume of the nasal cavity, right nostril",[22],2.8 ± 0.34$ cm^3
same,"Volume of the nasal cavity, left nostril",[23],3.8 ± 0.24 cm^3
same,"Volume of the nasal cavity, right nostril",[23],3.6 ± 0.24$ cm^3
same,"Volume of the nasal cavity, left nostril",[24],3.6 ± 0.14$ cm^3
same,"Volume of the nasal cavity, right nostril",[24],3.6 ± 0.24$ cm^3
same,"Volume of the nasal cavity, left nostril",[25],3.3 ± 0.3$ cm^3
same,"Volume of the nasal cavity, right nostril",[25],3.4 ± 0.1$ cm^3
same,"Volume of the nasal cavity, left nostril",[26],3.3 ± 0.2$ cm^3
same,"Volume of the nasal cavity, right nostril",[26],3.2 ± 0.2$ cm^3
same,"Volume of the nasal cavity, left nostril",[27],4.1 ± 0.1 cm^3
same,"Volume of the nasal cavity, right nostril",[27],4.4 ± 0.1 cm^3
same,"Volume of the nasal cavity, left nostril",[28],2.0 ± 0.3$ cm^3
same,"Volume of the nasal cavity, right nostril",[28],2.1 ± 0.3$ cm^3
same,"Volume of the nasal cavity, left nostril",[29],1.9 ± 0.1$ cm^3
same,"Volume of the nasal cavity, right nostril",[29],2.0 ± 0.1$ cm^3
same,"Volume of the nasal cavity, left nostril",[30],2.4 ± 0.24$ cm^3
same,"Volume of the nasal cavity, right nostril",[30],2.4 ± 0.14$ cm^3
same,"Volume of the nasal cavity, left nostril",[31],3.2 ± 0.24$ cm^3
same,"Volume of the nasal cavity, right nostril",[31],3.2 ± 0.24$ cm^3
same,"Volume of the nasal cavity, left nostril",[32],3.3 ± 0.14$ cm^3
same,"Volume of the nasal cavity, right nostril",[32],3.4 ± 0.14$ cm^3
same,"Volume of the nasal cavity, left nostril",[33],3.3 ± 0.2$ cm^3
same,"Volume of the nasal cavity, right nostril",[33],3.4 ± 0.1$ cm^3
same,"Volume of the nasal cavity, left nostril",[34],3.4 ± 0.1$ cm^3
same,"Volume of the nasal cavity, right nostril",[34],3.5 ± 0.2$ cm^3
same,"Volume of the nasal cavity, left nostril",[35],3.6 ± 0.2$ cm^3
same,"Volume of the nasal cavity, right nostril",[35],3.4 ± 0.2$ cm^3
same,"Volume of the nasal cavity, left nostril",[36],4.4 ± 0.1 cm^3
same,"Volume of the nasal cavity, right nostril",[36],4.4 ± 0.2 cm^3
same,"Volume of the nasal cavity, left nostril",[37],2.2 ± 0.1$ cm^3
same,"Volume of the nasal cavity, right nostril",[37],2.2 ± 0.2$ cm^3
same,"Volume of the nasal cavity, left nostril",[38],2.4 ± 0.2$ cm^3
same,"Volume of the nasal cavity, right nostril",[38],2.3 ± 0.2$ cm^3
same,"Volume of the nasal cavity, left nostril",[39],2.0 ± 0.24$ cm^3
same,"Volume of the nasal cavity, right nostril",[39],2.0 ± 0.14$ cm^3
same,"Volume of the nasal cavity, left nostril",[40],3.4 ± 0.14$ cm^3
same,"Volume of the nasal cavity, right nostril",[40],3.2 ± 0.24$ cm^3
same,"Volume of the nasal cavity, left nostril",[41],3.4 ± 0.24$ cm^3
same,"Volume of the nasal cavity, right nostril",[41],3.4 ± 0.14$ cm^3
same,"Volume of the nasal cavity, left nostril",[42],3.1 ± 0.1$ cm^3
same,"Volume of the nasal cavity, right nostril",[42],3.1 ± 0.1$ cm^3
same,"Volume of the nasal cavity, left nostril",[43],3.4 ± 0.1$ cm^3
same,"Volume of the nasal cavity, right nostril",[43],3.4 ± 0.1$ cm^3
same,"Volume of the nasal cavity, left nostril",[44],3.6 ± 0.1$ cm^3
same,"Volume of the nasal cavity, right nostril",[44],3.5 ± 0.1$ cm^3
same,"Volume of the nasal cavity, left nostril",[45],4.2 ± 0.2 cm^3
same,"Volume of the nasal cavity, right nostril",[45],4.1 ± 0.1 cm^3
same,"Volume of the nasal cavity, left nostril",[46],2.7 ± 0.2$ cm^3
same,"Volume of the nasal cavity, right nostril",[46],2.7 ± 0.3$ cm^3
same,"Volume of the nasal cavity, left nostril",[47],2.8 ± 0.24$ cm^3
same,"Volume of the nasal cavity, right nostril",[47],2.8 ± 0.24$ cm^3
same,"Volume of the nasal cavity, left nostril",[48],2.8 ± 0.14$ cm^3
same,"Volume of the nasal cavity, right nostril",[48],2.8 ± 0.24$ cm^3
same,"Volume of the nasal cavity, left nostril",[49],3.4 ± 0.14$ cm^3
same,"Volume of the nasal cavity, right nostril",[49],3.5 ± 0.14$ cm^3
same,"Volume of the nasal cavity, left nostril",[50],3.5 ± 0.24$ cm^3
same,"Volume of the nasal cavity, right nostril",[50],3.4 ± 0.14$ cm^3
